Measurements: ChEMBL document CHEMBL5154693, “N-Methylpropargylamine-Conjugated Hydroxamic Acids as Dual Inhibitors of Monoamine Oxidase A and Histone Deacetylase for Glioma Treatment” (J Med Chem, 2022)

Key:
[1] = molecular target: T1, Amine oxidase [flavin-containing] A (Homo sapiens, UniProt P21397); test: Inhibition of MAO-A (unknown origin) expressed in mouse GL26 cells using 14C 5-hydroxytryptamine as substrate pre-incubated for 20 mins followed by substrate addition measured after 20 mins by liquid scintillation spectroscopy; assay type: cell-based
T1 sequence (P21397 whole entry): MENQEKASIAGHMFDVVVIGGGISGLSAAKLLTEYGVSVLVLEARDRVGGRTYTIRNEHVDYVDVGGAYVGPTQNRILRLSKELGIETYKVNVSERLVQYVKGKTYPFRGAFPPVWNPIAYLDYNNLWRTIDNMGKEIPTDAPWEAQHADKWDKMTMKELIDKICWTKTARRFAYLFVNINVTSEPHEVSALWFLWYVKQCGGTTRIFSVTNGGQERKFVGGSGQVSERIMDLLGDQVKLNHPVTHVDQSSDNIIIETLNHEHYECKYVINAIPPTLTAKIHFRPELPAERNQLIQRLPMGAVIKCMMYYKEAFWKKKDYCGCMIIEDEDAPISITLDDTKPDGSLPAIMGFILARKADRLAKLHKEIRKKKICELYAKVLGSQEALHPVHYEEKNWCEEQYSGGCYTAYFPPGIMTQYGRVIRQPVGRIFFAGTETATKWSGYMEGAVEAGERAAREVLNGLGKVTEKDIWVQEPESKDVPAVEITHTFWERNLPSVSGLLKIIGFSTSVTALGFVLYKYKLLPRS

[2] = test system: U-251; test: cells; assay type: functional, cell-based; settings: Homo sapiens, U-251, 48 h
Description: Cytotoxicity against human TMZ-resistant U251 cells assessed as inhibition of cell growth incubated for 48 hrs by MTT assay

[3] = test system: U-251; test: Cytotoxicity against human U251 cells assessed as inhibition of cell growth incubated for 48 hrs by MTT assay; assay type: functional, cell-based; settings: DDE = dose-dependent effect
[4] = molecular target: Lysine-specific histone demethylase 1A (Homo sapiens, UniProt O60341); test: Inhibition of human LSD1 assessed as demethylase activity of LSD1 using Histone H3(1-21)K4me2 peptide as substrate incubated for 30 mins followed by substrate addition by amplex red dye based HRP-coupled assay
[5] = Toxicity in mouse bearing intracranial tumor assessed as median survival time at 25 mg/kg, ip for 10 days (Rvb= 13.8 days); assay type: organism-based; settings: in vivo, 240 h, time 10 day
[6] = Toxicity in C57BL6 mouse xenografted with mouse GL26 cells as assessed as last day of survival at 50 mg/kg, ip for 14 days treatment started at 5 days post-infection (Rvb=14 days); assay type: organism-based; settings: in vivo, 336 h, time 14 day
[7] = Toxicity in mouse bearing intracranial tumor assessed as last day of survival at 25 mg/kg,ip for 10 days (Rvb=16 days); assay type: organism-based; settings: in vivo, 240 h, time 10 day
[8] = Toxicity in mouse bearing intracranial tumor assessed as median survival time at 50 mg/kg, ip for 10 days (Rvb= 13.8 days); assay type: organism-based; settings: in vivo, 240 h, time 10 day
[9] = test system: GL26; test: Induction of apoptosis in mouse GL26 cells assessed as proteolytic cleavage of PARP1 incubated for 48 hrs by Western blot analysis; assay type: functional, cell-based; settings: dose 1.25-5 µM, DDE = dose-dependent effect
[10] = test system: GL26; test: Inhibition of HDAC in mouse GL26 cells assessed as increase in histone H3 acetylation at 0.62 to 1.25 uM incubated for 48 hrs by Western blot analysis; assay type: cell-based; settings: dose 0.62-1.25 µM, DDE = dose-dependent effect
[11] = test system: GL26; test: Inhibition of HDAC in mouse GL26 cells assessed as increase in alpha tubulin level at 0.62 to 1.25 uM incubated for 48 hrs by Western blot analysis; assay type: cell-based; settings: dose 0.62-1.25 µM, DDE = dose-dependent effect

| Structure (SMILES) | IC50 [1] | IC50 [2] | Activity [3] | EC50 [4] | Survival [5] | Survival [6] | Survival [7] | Survival [8] | Activity [9] | Activity [10] | Activity [11] |
| --- | --- | --- | --- | --- | --- | --- | --- | --- | --- | --- | --- |
| C#CCN(C)CCCOc1cc(NCc2ccc(/C=C/C(=O)NO)cc2)ccc1Cl | 4 nM | 990 nM | Dde | 10 µM | 16.4 days | 14 days | 21 days | – | – | – | – |
| C#CCN(C)CCCOc1ccc(NC(=O)CCCCCCC(=O)NO)cc1Cl | 30 nM | 2730 nM | Dde | – | – | 16 days | – | 14.4 days | Dde | Dde | Dde |
